Measured values published in US11739252B2, “Microbecidal composition and a method for mitigating internal microbiological influenced corrosion in petroleum transporting pipelines” (Indian Oil Corporation Limited, priority 2020, dated 2023).

Tested on: MIC causing microbes
Experiment: Synergistic effect of components: antimicrobial screening against MIC causing microbes and their mediated corrosion
Format: cell-based
Conditions: dosed at 10000 ppm
Experimental: To test the MIC activity, the microbecidal composition was subjected to antimicrobial screening against MIC causing microbes and their mediated corrosion. 10 gram of muck sample from a pipeline having MIC was used as inoculum. The growth of the microbes was followed by visual observation as well as by counting the CFU/ml on respective media. The growth was compared with control i.e., without microbecidal composition. Further, individual components of the microbecidal composition were evaluated to evaluate the synergistic effect of the composition (Table 1). As observed from the Table-1 below, when the individual components of the microbecidal composition was used, no significant MIC reduction was observed.

Question: Which “Percentage (%) reduction in MIC” value (base corrosion rate 12 mpy) does the source give for `CCO` [Alcohol] here?
Answer: Its value is 10%.

Question: What about the “After dosing of Microbecidal composition (mpy)” value (base corrosion rate without composition 12 mpy, muck sample inoculum) of the same compound?
Answer: Its value is 10.75 mpy.
